We go through two molecules from BindingDB's records for doi:10.1016/s0960-894x(01)00765-x (Bristol Myers Squibb, 2002).

The target in the experiment is T1, Neuropeptide Y receptor type 1 (Homo sapiens, UniProt P25929).
T1 sequence (P25929 whole entry): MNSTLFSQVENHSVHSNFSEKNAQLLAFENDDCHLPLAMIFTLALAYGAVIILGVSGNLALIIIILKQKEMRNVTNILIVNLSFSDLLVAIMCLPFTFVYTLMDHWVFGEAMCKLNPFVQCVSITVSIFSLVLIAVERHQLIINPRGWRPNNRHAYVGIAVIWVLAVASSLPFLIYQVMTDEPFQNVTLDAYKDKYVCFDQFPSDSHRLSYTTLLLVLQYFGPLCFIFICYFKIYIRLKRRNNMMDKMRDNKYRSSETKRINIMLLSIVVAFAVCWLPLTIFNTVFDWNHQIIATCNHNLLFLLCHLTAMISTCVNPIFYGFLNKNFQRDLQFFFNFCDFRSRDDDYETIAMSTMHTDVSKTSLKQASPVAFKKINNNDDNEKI
Kind of experiment: ChEBML_143683. An excerpt: Binding affinity against Neuropeptide Y receptor type 1 using I-PYY as a radioligand in human neuroblastoma SK-N-MC cells

`COC(=O)C1=C(C)N=C(C)C(C(=O)OC)N1c1cccc(NC(=S)NCCCN2CCN(C3CCCCC3)CC2)c1` (configuration not stated) [1-(3-{3-[3-(4-Cyclohexyl-piperazin-1-yl)-propyl]-thioureido}-phenyl)-3,5-dimethyl-1,4-dihydro-pyrazine-2,6-dicarboxylic acid dimethyl ester] showed a half-maximal inhibitory concentration (IC50) of more than 1 µM.

`COC(=O)C1=C(C)N=C(C)C(C(=O)OC)N1c1cccc(NC(=S)NCCCN2CCC(C(C)(C)C)CC2)c1` (configuration not stated) [1-(3-{3-[3-(4-tert-Butyl-piperidin-1-yl)-propyl]-thioureido}-phenyl)-3,5-dimethyl-1,4-dihydro-pyrazine-2,6-dicarboxylic acid dimethyl ester] displayed an IC50 of more than 1 µM.
